Results taken from a melting point compilation (Tetko et al.; mined from patent text by program, amines drawn as free bases though some values may be those of a salt).

| Compound | melting point |
| --- | --- |
| Cc1c(-c2c(F)cc(Cl)c(=O)n2C)nn(C)c1C#N | 190 to 191 °C |
| Nc1cc(Sc2ccc3c(C(=O)Nc4ccc(F)c(C(F)(F)F)c4)cccc3c2)ncn1 | 221 °C |
| O=C(NCc1ccccn1)Nc1cc(NC(=O)c2ccccn2)ccn1 | 206 to 207 °C |
| CCCCCOc1ccc2c(c1)C=C(CNC(=O)CCC)CO2 | 90 °C |
| CC1CCCCN1C(=O)COc1nc(C(Cl)(Cl)Cl)ns1 (configuration not stated) | 88 °C |
| COc1ccc(C(=O)Oc2ccc(S(N)(=O)=O)cc2)cc1C12CC3CC(CC(C3)C1)C2 | 223 to 224 °C |
| COc1cc(C)nc(NC(=O)NS(=O)(=O)c2ccccc2C(O)CF)n1 (configuration not stated) | 153 to 155 °C |
| Cn1cc(C2=C(c3cn(CCCS(C)(=O)=O)c4ccccc34)C(=O)NC2=O)c2ccccc21 | 225 to 227 °C |
| OC1c2cc(OCc3ccc4ccccc4n3)ccc2OCC1Oc1ccccc1 (configuration not stated) | 151 to 153 °C |
| CC[C@H]1[C@@H](O)[C@H](C)C(=O)N1c1ccc(C#N)c(C(F)(F)F)c1 | 113 to 119 °C |
| Cc1ccccc1C(=O)NC(n1cncn1)C(Cl)(Cl)CCl (configuration not stated) | 133 to 137 °C |
| CC(C)(C)OC(=O)N1CCc2c(cc(O)c(O)c2F)C(c2ccc(O)cc2)C1 (configuration not stated) | 100 to 105 °C |
| O=C(Nc1ccc(F)cc1F)N(Cc1ccccc1)CC1(c2ccccc2)CCCC1 | 119 to 122 °C |
| Cc1oc(-c2ccc(F)cc2)cc1COc1cccc(CSC(C)(C)C(=O)O)c1 | 134 to 135 °C |
| OC1CCC2(c3c[nH]cn3)Cc3ccccc3C12 (configuration not stated) | 183 to 186 °C |
| O=C(O)C1CCc2c(oc3ccc([N+](=O)[O-])cc23)C1 (configuration not stated) | 229 to 232 °C |
| CSc1ccc(O)cn1 | 133 °C |
| CCOC(=O)c1cccc2[nH]c(=O)oc(=O)c12 | 188 to 190 °C |
| O=C(c1ccccc1)C(O)C1OC(n2cc(F)c(=O)[nH]c2=O)C(O)(C(=O)c2ccccc2)C1(O)C(=O)c1ccccc1 (configuration not stated) | 210 to 214 °C |
| O=C1Cn2c(c(Cl)c3ccccc32)-c2cc(Cl)ccc2N1 | 267 to 271 °C |
| CC1(C(=O)NCc2cccs2)CC1 | 70 to 71 °C |
| COc1nscc1C(N)=O | 165 to 168 °C |
| Clc1ccc(C2Cc3cnc(Nc4ccc(CCN5CCOCC5)cc4)nc3-c3ccccc32)cc1Cl (configuration not stated) | 166 to 167 °C |
| Clc1cccc(-c2nc(NC3CCCCC3)c3ccccc3n2)n1 | 218 to 221 °C |
| COc1ccc(C(=O)c2cc([N+](=O)[O-])ccc2N2CCC(C)CC2)cc1 | 119 °C |
| Cc1cc(=O)[nH]c2c(C)cc(Br)cc12 | > 300 °C |

| Compound | melting point |
| --- | --- |
| CC(C)(C)c1ccc(NC(=O)c2ccc(C#N)cc2)cc1 | 210 to 211 °C |
| CCOCc1nc2c(N)nc(C)c(C)c2n1CCCCS(=O)(=O)NC | 194 to 196 °C |
| COc1ccc(CNCCCOc2ccc(NC(=O)c3cccc4c(=O)c5ccccc5[nH]c34)cc2)cc1OC | 138 to 139 °C |
| COc1cc(OC(=O)C(C)C)c2c(=O)c(OC)c(-c3ccc(OC(=O)C(C)(C)C)c(OC)c3)oc2c1 | 151 to 152 °C |
| COc1ccc2c(=O)c(O)cn(C)c2c1 | 228 °C |
| CCC1Cc2c(Br)cccc2C1O[Si](C)(C)C (configuration not stated) | 133 to 135 °C |
| CN(CCCCN1C(=O)C=CC1=O)c1ccccc1 | 66 to 67 °C |
| Cc1oc(-c2ccccc2)nc1CCC(=O)c1ccc(CCC2OCCO2)cc1 | 89 to 90 °C |
| CS(=O)(=O)c1ccc(-n2nc(CO)cc2-c2ccc(-c3ccco3)cc2)cc1 | 176 °C |
| CCCCCCCNC(=O)Nc1ccccc1C(=O)Nc1ccc(CCCCCCC)cc1 | 155 to 157 °C |
| CCc1cn(C(CC)C(=O)N(C)C)nc1-c1ccccc1Cl (configuration not stated) | 60 to 63 °C |
| CN(C)C(=O)c1c(-c2ccc(F)cc2)ccc2ccccc12 | 103 to 104 °C |
| COc1cc(OC)c2c(=O)cc(-c3ccc(O)cc3)oc2c1 | 301 to 303 °C |
| Cc1cc(C(=O)C(=O)O)ccc1OCCOc1ccc2ccccc2c1 | 167 to 169 °C |
| O=C(O)c1cc(Cl)c(Oc2ccc(O)cc2)c(Cl)c1 | 163 to 165 °C |
| CNc1nnc(C(C)(C)C)c(=O)n1NC | 170 to 171 °C |
| CCOC(=O)Cc1c([N+](=O)[O-])cc(O)c2ccccc12 | 96 to 100 °C |
| C=CCOc1ccc(C(=O)c2ccc(OCC=C)cc2O)c(O)c1 | 95 °C |
| COc1cc(C2CCN(C[C@@H](C)O)CC2)ccc1Nc1ncc2ccc(-c3cc(Cl)ccc3OC)n2n1 | 94 to 108 °C |
| O=[N+]([O-])c1ccc(-c2nn(-c3ccccn3)cc2C=NO)o1 | 234 to 235 °C |
| CNC(=O)C(SC)c1cccc(C(=O)c2ccccc2)c1N (configuration not stated) | 149 to 150 °C |
| CC(C(=O)O)c1ccc(N2C(=O)C3CCCCC3C2=O)cc1 (configuration not stated) | 224 to 226 °C |
| CN1CCN(Cc2ccccc2Cl)C(C(=O)NCCCl)C1 (configuration not stated) | 74 to 75 °C |
| CCc1cc(C(=O)O)c(S(N)(=O)=O)o1 | 186 °C |
| COc1ccc(Nc2cc3c(cc2Nc2ccccc2)C(=O)NC3=O)cc1 | 266 to 267 °C |
| OC1=NN(c2cc(-c3ccnc(Nc4cccc(Cl)c4)n3)ccn2)CC1 | 222 to 226 °C |

| Compound | melting point |
| --- | --- |
| N#CCCn1c(C(=O)OCc2ccccc2)cc2ccccc21 | 98 to 100 °C |
| CC1CC(=O)c2cc([N+](=O)[O-])c(F)cc2O1 (configuration not stated) | 139 to 141 °C |
| CC(=O)Nc1c2c(cc3c1CCC3)CCC2 | 257 to 259 °C |
| Brc1ccccc1C=Cc1ccco1 | 108 to 110 °C |
| COC(=O)c1cccc(-c2cc(CCN3CCCC3=O)c3cc(OC)ccc3c2)c1 | 110 to 112 °C |
| CCCOc1ccccc1-c1nc2nc(NCC)ncc2c(=O)[nH]1 | 181 to 182 °C |
| Cc1ccc(C(=O)NCC2CCN(C[C@H]3COc4ccc(Cl)cc4O3)CC2)c(N)n1 | 160 to 163 °C |
| CN1CCCC1CNC(=O)c1cc(S(N)(=O)=O)cc2c1OCCO2 (configuration not stated) | 187 to 188 °C |
| COc1ccccc1C(=O)c1cc([N+](=O)[O-])ccc1SC | 119 to 122 °C |
| Nc1cccc(CCCOCCCCCCNCC(O)c2cc(Cl)c(N)c(Cl)c2)n1 (configuration not stated) | 62 to 65 °C |
| C#Cc1c(OC)nc(C)nc1C(F)(F)F | 77 °C |
| CC(=O)c1ccc(C2c3cc(NC(=O)CC(C)(C)C)c(C)c(C)c3OC2(C)C)cc1 (configuration not stated) | 195 to 196 °C |
| CS(=O)(=O)c1nc(N)c2ncn(C3CCCCC3)c2n1 | 272 to 274 °C |
| Nc1nc2c(s1)CCCc1ccc(F)cc1-2 | 270 °C |
| Cc1noc(C)c1S(=O)(=O)n1nnc2cc3c(cc21)OC(F)(F)O3 | 120 to 123 °C |
| Cc1cc(Cc2cc(C(F)(F)F)cc(C(F)(F)F)c2)ccc1NC(=O)c1cccc(Cl)c1C(=O)NC(C)CS(C)=O (configuration not stated) | 162 to 165 °C |
| CCCS(=O)(=O)c1cc(C(=O)CCC(=O)c2cc(OC)c(OC)c(OC)c2)cc(OC)c1OCc1ccccc1 | 148 to 150 °C |
| CCN(CC)CCCOc1ccc(C[C@H](NC(=O)[C@@H]2CCCN2S(=O)(=O)c2ccc(C)cc2)C(=O)O)cc1 | 76 to 82 °C |
| COc1cc(F)c(C(=O)Oc2ccc(C(=O)O)cc2)cc1C12CC3CC(CC(C3)C1)C2 | 268 to 270 °C |
| O=S1(=O)NC2CCCN2c2ccc(O)cc21 (configuration not stated) | 237 to 242 °C |
| CC(NC(=O)C(N)Cc1ccccc1)C(N)=O (configuration not stated) | 95 to 97 °C |
| O=C(O)CNC(=O)c1nc2ccc(NCCCN3CCC(OC(c4ccccc4)c4ccccc4)CC3)nn2n1 | 256 to 258 °C |
| Cc1c(CCCC(=O)O)cccc1C(=O)c1ccc(Cl)cc1 | 124 °C |
| CC1=C(C(=O)OCc2ccccc2)C(c2cccc(Cl)c2Cl)C(C(=O)OCc2ccccc2)=C(C)N1 | 131 to 132 °C |
| COc1ccc2c(c1)CCc1c(Cl)cccc1S2 | 73 to 74 °C |
| CN(C)CCCOc1ccc2c(=O)c3ccc(OCCCN(C)C)cc3oc2c1 | 69 to 70 °C |

| Compound | melting point |
| --- | --- |
| Cc1c(-c2ccncc2)[nH]c(-c2ccncc2)c1C(=O)OC(C)(C)C | 265 to 267 °C |
| CN(c1ccc(Br)cc1)S(=O)(=O)c1cccc(C(=O)Nc2ccc(Cl)cc2F)c1 | 117 to 118 °C |
| CCCCCCCCCCCCCCCC(=O)Oc1c(F)c(F)c(F)c(F)c1F | 42 to 44 °C |
| COC(=O)NNC(=O)C(F)(F)F | 105 °C |
| Cc1nnc2nc(-c3ccccc3)c3cc(Cl)ccc3n12 | 335 to 337 °C |
| O=C(CCc1ccccc1)N[C@H](Cc1ccc(Oc2ccccc2)cc1)[C@@H](O)c1ccc(F)cc1 (racemic) | 108 to 110 °C |
| CCCCCCN1C(=O)C(=CC(=O)O)SC1=Nc1ccc(Cl)c(Cl)c1 | 156 to 157 °C |
| COc1ccc(C2=NN(C3CCN(S(=O)(=O)c4ccc(C)cc4)CC3)C(=O)[C@H]3CC=CC[C@@H]23)cc1Cl (relative stereo) | 198 to 199 °C |
| CNC(=O)CN(CCN(CCN(CC(=O)O)CC(=O)NC)CC(=O)O)CC(=O)O | 78 to 82 °C |
| O=C(O)c1cnc(-c2nnn[nH]2)c2ccccc12 | 292 °C |
| CCn1nc(-c2cccc(Cl)c2)c(C(C)=O)c(Nc2cccc3cnccc23)c1=O | 189 to 191 °C |
| Cn1ccnc1C(=O)c1[nH]c2ccc(Cl)cc2c1CC(=O)O | 230 to 233 °C |
| COc1cc(Nc2nccc(-c3ccc(NCCN)nc3)n2)cc(OC)c1OC | 117 to 118 °C |
| CCNC(=S)c1ccc2c(c1)Nc1ccccc1S2 | 155 to 156 °C |
| NS(=O)(=O)Oc1cccc(Br)c1 | 90 to 91.5 °C |
| CC(C)N1CCN(C(=O)OC2C3=C(SCCS3)C(=O)N2c2ccc(Cl)cn2)CC1 (configuration not stated) | 130 to 135 °C |
| Oc1ccc2c(c1)CCCC(c1ccccc1)=C2c1ccc(OCCCCSCc2ccccn2)cc1 | 155 °C |
| COC(=O)CNc1cccc(I)c1 | 83 °C |
| CCc1cc(C)c2c(n1)-c1ccccc1C2=O | 68 to 70 °C |
| CCCC(c1ccc(C(=O)O)cc1OCc1ccc(Br)cc1)n1ccnc1 (configuration not stated) | 155 to 158 °C |
| CCC(CC)n1cc(C)nc(Nc2c(C)cc(C)cc2C)c1=O | 109 °C |
| CC=C1OC(=O)c2c(OC)cccc21 | 106 to 109 °C |
| COc1cccc(C(N)c2sccc2S(=O)(=O)Nc2onc(C)c2Br)c1 (configuration not stated) | 70 to 73 °C |
| COc1ccc(SCCCCNC(P(=O)(O)O)P(=O)(O)O)cc1 | 188 to 189 °C |
